Results: the Kinase Knowledgebase extract (Sharma et al. 2016)
pIC50: −log10 of the molar value.

The compounds below were run against PIK3CA (human) (UniProt P42336) (assay: Inhibition of PIK3CA Kinase Activity).
PIK3CA (human), sequence (P42336 whole entry, looked up): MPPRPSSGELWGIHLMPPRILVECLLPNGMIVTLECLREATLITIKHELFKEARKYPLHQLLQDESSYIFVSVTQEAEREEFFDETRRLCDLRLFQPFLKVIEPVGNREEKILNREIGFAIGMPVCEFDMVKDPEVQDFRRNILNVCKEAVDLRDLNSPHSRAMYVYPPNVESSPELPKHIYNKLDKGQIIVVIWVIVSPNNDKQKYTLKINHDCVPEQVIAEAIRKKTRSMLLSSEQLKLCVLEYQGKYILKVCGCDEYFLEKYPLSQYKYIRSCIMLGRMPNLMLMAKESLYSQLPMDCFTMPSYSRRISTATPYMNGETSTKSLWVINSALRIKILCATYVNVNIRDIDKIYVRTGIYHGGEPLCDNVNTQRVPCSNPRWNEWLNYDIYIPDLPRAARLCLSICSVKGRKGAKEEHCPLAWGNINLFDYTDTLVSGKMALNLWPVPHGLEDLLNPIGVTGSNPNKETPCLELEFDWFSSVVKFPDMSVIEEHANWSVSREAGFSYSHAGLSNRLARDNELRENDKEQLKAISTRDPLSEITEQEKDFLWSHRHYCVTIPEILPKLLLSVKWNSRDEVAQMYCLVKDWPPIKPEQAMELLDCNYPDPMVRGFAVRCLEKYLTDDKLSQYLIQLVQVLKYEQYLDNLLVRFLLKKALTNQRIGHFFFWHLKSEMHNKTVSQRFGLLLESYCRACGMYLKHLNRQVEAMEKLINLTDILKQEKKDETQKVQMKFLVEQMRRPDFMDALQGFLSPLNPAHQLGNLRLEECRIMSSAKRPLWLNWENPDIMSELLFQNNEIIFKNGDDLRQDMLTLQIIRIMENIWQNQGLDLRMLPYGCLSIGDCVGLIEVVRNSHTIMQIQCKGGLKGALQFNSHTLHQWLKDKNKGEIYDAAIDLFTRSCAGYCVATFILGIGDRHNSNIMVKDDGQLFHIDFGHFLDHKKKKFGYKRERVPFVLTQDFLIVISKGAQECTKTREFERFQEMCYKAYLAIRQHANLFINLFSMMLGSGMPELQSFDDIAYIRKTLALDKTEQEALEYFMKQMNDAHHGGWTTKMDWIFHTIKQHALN

pIC50 | SMILES
> 6.00 | CC(C)Cn1cnc2c(-c3cccc(O)c3)nc(N3CCOCC3)nc21
> 6.00 | Nc1ncc(-c2nc(N3CCOCC3)nc3c2ncn3C2CCN(C(=O)c3ccccc3)C2)cn1 (centres undefined)
> 6.00 | CC(C1CC1)n1cnc2c(-c3cnc(N)nc3)nc(N3CCOCC3)nc21 (centres undefined)
> 6.00 | CC(C)(C)OC(=O)N1CCC(n2cnc3c(-c4cnc(N)nc4)nc(N4CCOCC4)nc32)CC1
> 6.00 | C#CCn1cnc2c(-c3cccc(O)c3)nc(N3CCOCC3)nc21
> 6.00 | COCC(C)n1cnc2c(-c3cccc4[nH]ccc34)nc(N3CCOCC3)nc21 (centres undefined)
> 6.00 | CC(C)C(C)n1cnc2c(-c3ccc(N)nc3)nc(N3CCOCC3)nc21 (centres undefined)
> 6.00 | Oc1cccc(-c2nc(N3CCOCC3)nc3c2ncn3CC2CC2)c1
> 6.00 | CCc1nc2c(-c3cccc(O)c3)nc(N3CCOCC3)nc2n1C(C)CC (centres undefined)
> 6.00 | CCC(C)n1c(Cl)nc2c(-c3cccc(O)c3)nc(N3CCOCC3)nc21 (centres undefined)
> 6.00 | N#CCn1cnc2c(-c3cccc4[nH]ccc34)nc(N3CCOCC3)nc21
> 6.00 | COc1cc(Cn2cnc3c(-c4cccc(O)c4)nc(N4CCOCC4)nc32)cc(OC)c1
> 6.00 | Cc1nc(N)ncc1-c1nc(N2CCOCC2)nc2c1ncn2C(C)c1ccccc1 (centres undefined)
> 6.00 | CCC(C)n1cnc2c(-c3cnc(N)nc3OC)nc(N3CCOCC3)nc21 (centres undefined)
> 6.00 | CC(=O)Nc1ccc(Cn2cnc3c(-c4cccc(OC(C)=O)c4)nc(N4CCOCC4)nc32)cc1
> 6.00 | Oc1cccc(-c2nc(N3CCOCC3)nc3c2ncn3C2CCCCO2)c1 (centres undefined)
> 6.00 | c1cc(-c2nc(N3CCOCC3)nc3c2ncn3C2CCOC2)c2cc[nH]c2c1 (centres undefined)
> 6.00 | CCCC(=O)N1CCC(n2cnc3c(-c4cnc(N)nc4)nc(N4CCOCC4)nc32)CC1
> 6.00 | COCCn1cnc2c(-c3cccc(O)c3)nc(N3CCOCC3)nc21
> 6.00 | CCC(C)n1cnc2c(-c3cnc(N)nc3)nc(N3CCOC[C@@H]3C)nc21 (some centres undefined)
> 6.00 | Nc1ccc(-c2nc(N3CCOCC3)nc3c2ncn3C2CCCC2)cn1
> 6.00 | CCN(CC)CCn1cnc2c(-c3cccc(O)c3)nc(N3CCOCC3)nc21
> 6.00 | CC(C)n1cnc2c(-c3ccc(N)nc3)nc(N3CCOCC3)nc21
> 6.00 | Oc1cccc(-c2nc(N3CCOCC3)nc3[nH]c(Br)nc23)c1
> 6.00 | CCC(C)n1c(C)nc2c(-c3cccc(O)c3)nc(N3CCOCC3)nc21 (centres undefined)
> 6.00 | CC(COC(C)(C)C)n1cnc2c(-c3cnc(N)nc3)nc(N3CCOCC3)nc21 (centres undefined)
> 6.00 | Cc1ccc(C(=O)N2CCC(n3cnc4c(-c5cnc(N)nc5)nc(N5CCOCC5)nc43)C2)s1 (centres undefined)
> 6.00 | CCCC(=O)N1CCC(n2cnc3c(-c4cccc5[nH]ccc45)nc(N4CCOCC4)nc32)CC1
> 6.00 | CCNc1ccc(Cn2cnc3c(-c4cccc(O)c4)nc(N4CCOCC4)nc32)cc1
